The target of test [1] is T1, hamster galectin-1 mutant C2S-Gal-1 (Cys-2 to Ser), SEQ ID NO:2 (Cricetulus griseus, UniProt P48538, C3S).
T1 construct: made in house; host or cells: E. coli
The test can be described thus: Equilibrium dialysis binding of N-acetyllactosamine. The note with it: stated only as similar affinity to the monomeric mutants. From the text: (§1) Specific mutations were created in the six N-terminal amino acids (SEQ ID NO:1) of hamster galectin-1, as indicated in FIG. 3 and as described in further detail in Cho and Cummings, Biochemistry, 35:13081, 1996, which is hereby incorporated by reference herein in its entirety. C2S-Gal-1 (SEQ ID NO:2) contains a single replacement of Cys-2 to Ser. V5D-Gal-1 (SEQ ID NO:3) contains a single mutation of Val-5 to Asp. N-Gal-1 (SEQ ID NO:4) contains disruptions of three hydrophobic amino acids at the N-terminus. We also made another mutant construct, termed N/C-Gal-1, which contained the amino terminal changes of N-Gal-1 in addition to multiple changes in specific hydrophobic amino acids at the C-terminus (data not shown). All mutants, except for C2S-Gal-1, behaved as monomers in size exclusion HPLC and native gel electrophoresis. C2S-Gal-1 was indistinguishable from the native lectin in its ability to undergo monomer-dimer equilibrium and in its carbohydrate-binding affinity. […] However, in equilibrium dialysis N-Gal-1 and V5D-Gal-1 bound N-acetyllactosamine with similar affinity (Kd ≈90 μM) to that of the C2S-Gal-1 and the native lectin. […] N/C-Gal-1 was non-functional.

Test [2] has as its target T2, hamster galectin-1 mutant N-Gal-1 (monomeric; three hydrophobic N-terminal amino acids disrupted), SEQ ID NO:4 (Cricetulus griseus, UniProt P48538, A7S/C3S/L5Q/V6D).
T2 construct: made in house; host or cells: E. coli
The test is described as above.
Text: as §1

Test [3] concerns the target T3, hamster galectin-1 mutant V5D-Gal-1 (Val-5 to Asp), SEQ ID NO:3 (Cricetulus griseus, UniProt P48538, V6D).
T3 construct: made in house; host or cells: E. coli
The description is as above.
Text: as §1

Test [4] has as its target hamster galectin-1, native lectin (N-terminus SEQ ID NO:1) (Cricetulus griseus, UniProt P48538). The description is as above. Conditions: stated only as similar affinity to the monomeric mutants.
Text: as §1

In test [5] the target is T4, recombinant galectin-1 (Cys at 2nd residue converted to Ser) (Cricetulus griseus, UniProt P48538, C3S).
T4 construct: made in house; host or cells: E. coli
The test can be described thus: Binding of biotinylated galectin-1 to activated neutrophils and desialylated HL-60 cells (flow cytometry). Type of test: cell-based, hamster. Conditions: 10 mM sugar; galectin-1 10 μg/ml; activated neutrophils, desialylated HL-60 cells. The source says:
Isolated neutrophils were activated by treatment with PMA and HL-60 cells were desialylated by treatment with neuraminidase. Heparinized blood was obtained from normal donors. Neutrophils were isolated by dextran sedimentation, hypotonic lysis, and density gradient centrifugation on HISTOPAQUE-1077 (Sigma), as described [G. A. Zimmerman, T. M. McIntyre, and S. M. Prescott, J. Clin. Invest., 76:2235, 1985]. Typically, the polymorphonuclear cells were >90% neutrophils by Wright-Giemsa staining and >90% CD16^+ as assessed by flow cytometry. Neutrophils were activated by treatment with phorbol myristate acetate (PMA) (Sigma) (0.5 μM) for 20 minutes at 37° C. in RPMI containing 20% FCS (0.5 ml). HL-60 cells were routinely maintained in RPMI containing 20% FCS. Desialylated HL-60 cells were prepared by treating 3×10^7 cells with Arthrobacter ureafaciens neuraminidase (Sigma) (100 mU) in 500 μl of RPMI containing 20% FCS for 1 hour at 37° C. […] The washed cells were incubated with FITC-streptavidin (1:100 dilution) (Sigma), washed once with PBS, and analyzed by flow cytometry. […] "Unstained" indicates fluorescence of either resting neutrophils or HL-60 cells incubated in the absence of either MAL or galectin-1. "Control" indicates fluorescence of either activated neutrophils or desialylated HL-60 cells incubated with galectin-1 in the presence of 10 mM lactose.

In test [6] the target is T4, recombinant galectin-1 (Cys at 2nd residue converted to Ser). The test can be described thus: Galectin-1-induced apoptosis of activated neutrophils and desialylated HL-60 cells (annexin V staining). Conditions: galectin-1 10 μM; lactose 10 mM. It counts as cell-based, hamster. As for the experimental part:
Resting or activated neutrophils (3×10^6 cells) were treated with galectin-1 (10 μM) in 0.5 ml of HBSS (lacking Ca^2+ /Mg^2+ and containing 0.5% human albumin) for 90 minutes at 37° C. in the presence or absence of 10 mM lactose. HL-60 cells and desialylated HL-60 cells (3×10^6 cells/0.5 ml) were treated with galectin-1 (10 μM) for 20 hours at 37° C. in the presence or absence of 10 mM lactose. At the end of the incubations all cells were treated with 10 mM lactose in PBS to disaggregate the cells. […]
Annexin V is a protein that recognizes phosphatidyl serine (PS) and is a convenient marker for apoptosis of neutrophils and other cells (S. J. Martin, C. P. Reutelingsperger, A. J. McGahon, J. A. Rader, R. C. van Schie, D. M. LaFace and D. R. Green DR, J. Exp. Med., 182:1545, 1995; C. H. Homburg, M. de Haas, A. E. von dem Borne, A. J. Verhoeven, C. P. Reutelingsperger and D. Roos, Blood, 85:532, 1995; I. Vermes, C. Haanen, H. Steffens-Nakken, and C. Reutelingsperger, J. Immunol. Methods, 184:39, 1995; Z. Darzynkiewicz, G. Juan, X. Li, W. Gorczyca, T. Murakami, and F. Traganos, Cytometry 27:1, 1997). […] Within 90 minutes following treatment with 10 μM galectin-1, 36% of the activated neutrophils undergo apoptosis, as determined by their staining with annexin V (FIG. 2A). […]

Test [7] has the same target. The test can be described thus: Cell agglutination by galectin-1. It counts as cell-based, hamster. How it is done: In all cases cell binding of galectin-1 to cells was inhibited by 10 mM lactose, a known inhibitor of galectin-1 (FIG. 1), but not by 10 mM maltose, an isomeric, non-inhibitory analog (data not shown). We noted that both activated neutrophils and desialylated HL-60 cells are strongly agglutinated by galectin-1, whereas resting neutrophils and HL-60 cells are not appreciably agglutinated, which further underscores the profound differences in surface phenotypes between resting and activated neutrophils.

Each structure is given as a SMILES string.

T4 sequence (P48538 whole entry C3S): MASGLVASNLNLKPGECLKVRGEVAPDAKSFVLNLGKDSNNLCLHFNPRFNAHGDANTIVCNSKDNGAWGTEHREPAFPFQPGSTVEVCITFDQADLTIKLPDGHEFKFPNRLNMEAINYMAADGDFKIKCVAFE
T2 sequence (P48538 2-135 C3S/L5Q/V6D/A7S limits assumed): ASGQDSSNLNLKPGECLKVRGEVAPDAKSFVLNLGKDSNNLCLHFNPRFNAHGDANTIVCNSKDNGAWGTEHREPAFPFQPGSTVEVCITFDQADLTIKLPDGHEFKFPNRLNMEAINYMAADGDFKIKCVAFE
T1 sequence (P48538 whole entry C3S): as the sequence (P48538 whole entry C3S) above
T3 sequence (P48538 whole entry V6D): as the sequence (P48538 whole entry C3S) above, with S3C, V6D counted along it
Chain of hamster galectin-1, native lectin (N-terminus SEQ ID NO:1) (P48538 2-135): as the sequence (P48538 2-135 C3S/L5Q/V6D/A7S limits assumed) above, with S2C, Q4L, D5V, S6A counted along it

For the compound `CC(=O)N[C@H]1C(O)O[C@H](CO)[C@@H](O[C@@H]2O[C@H](CO)[C@H](O)[C@H](O)[C@H]2O)[C@@H]1O` (some centres unmarked) [N-acetyllactosamine], the Kd in test [1], in test [2], in test [3] and in test [4] was approximately 90 µM throughout.
For the compound `OC[C@H]1O[C@@H](O[C@H]2[C@H](O)[C@@H](O)C(O)O[C@@H]2CO)[C@H](O)[C@@H](O)[C@H]1O` (some centres unmarked) [lactose], the “Inhibition of cell binding of galectin-1” value in test [5] is “inhibited”. Moreover, in test [6], the “Inhibition of apoptosis-inducing activity of galectin-1” value is given as “inhibited”. In addition, the “Inhibition of cell agglutinating activity of galectin-1” value in test [7] is listed as “inhibited”.
As to `OC[C@H]1O[C@H](O[C@H]2[C@H](O)[C@@H](O)[C@H](O)O[C@@H]2CO)[C@H](O)[C@@H](O)[C@@H]1O` [maltose], the “Inhibition of cell binding of galectin-1” value in test [5] was “non-inhibitory”.
